Source: PubChem BioAssay (NCI)
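How tested: cells in 96-well plates exposed to compound for 48 hours at five concentrations. Here, GI50 denotes the concentration required for 50% inhibition of growth. TGI is the concentration that stops growth completely.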

The compounds below were run on OVCAR-8 ovarian (assay: inhibition of tumour cell growth, NCI panel, 48 h).
With `Cc1ccc(-c2nc(C(Cl)Cl)n3nc(-c4ccccc4)cc3n2)cc1` the GI50 was 0.512 µM and the TGI was > 100 µM.
With `COC(=O)/C=C\S/C(=C(/c1ccccc1)n1ccc(C(=O)OC)n1)c1ccccc1` the TGI was > 100 µM.
In the case of `COc1ccc(/C=N/Nc2nc3ccccc3c(=O)n2-c2ccccc2)c(OCc2ccccc2)c1`, the TGI is reported as > 100 µM.
`NC(N)=N/N=C/c1c(-c2ccccn2)nc2sc(Cl)cn12` showed a GI50 of 6.32 µM and a TGI of 13.5 µM.

Each compound was assayed on OVCAR-5 ovarian (assay: inhibition of tumour cell growth, NCI panel, 48 h).
With `COC(=O)/C=C\S/C(=C(/c1ccccc1)n1ccc(C(=O)OC)n1)c1ccccc1` the TGI was > 100 µM.
With `COc1ccc(/C=N/Nc2nc3ccccc3c(=O)n2-c2ccccc2)c(OCc2ccccc2)c1` the TGI was > 100 µM.
In the case of `CNC(=O)c1cc(Oc2ccc(NC(=O)Nc3ccc(Cl)c(OC(F)(F)F)c3)c(F)c2)ccn1`, the GI50 is reported as 3.93 µM and the TGI is reported as > 33.2 µM.
With `NC(N)=N/N=C/c1c(-c2ccccn2)nc2sc(Cl)cn12` the GI50 was 6.3 µM and the TGI was 12.6 µM.

What follows are compounds tested on U251 CNS (assay: inhibition of tumour cell growth, NCI panel, 48 h).
Work on `Cc1ccc(-c2nc(C(Cl)Cl)n3nc(-c4ccccc4)cc3n2)cc1` yielded a GI50 of 0.322 µM and a TGI of 1.53 µM.
With `COC(=O)/C=C\S/C(=C(/c1ccccc1)n1ccc(C(=O)OC)n1)c1ccccc1` the TGI was 38.2 µM.
For `COc1ccc(/C=N/Nc2nc3ccccc3c(=O)n2-c2ccccc2)c(OCc2ccccc2)c1`, the TGI was > 100 µM.
`CNC(=O)c1cc(Oc2ccc(NC(=O)Nc3ccc(Cl)c(OC(F)(F)F)c3)c(F)c2)ccn1` was tested, and the GI50 was 2.32 µM and the TGI was 13.7 µM.
Work on `NC(N)=N/N=C/c1c(-c2ccccn2)nc2sc(Cl)cn12` yielded a GI50 of 8.28 µM and a TGI of 15.1 µM.

What follows are compounds tested on SNB-75 CNS (assay: inhibition of tumour cell growth, NCI panel, 48 h).
In the case of `Cc1ccc(-c2nc(C(Cl)Cl)n3nc(-c4ccccc4)cc3n2)cc1`, the GI50 is reported as > 100 µM and the TGI is reported as > 100 µM.
Compound `COC(=O)/C=C\S/C(=C(/c1ccccc1)n1ccc(C(=O)OC)n1)c1ccccc1` has a TGI of 24 µM.
In the case of `COc1ccc(/C=N/Nc2nc3ccccc3c(=O)n2-c2ccccc2)c(OCc2ccccc2)c1`, the GI50 is reported as > 100 µM and the TGI is reported as > 100 µM.
In the case of `CNC(=O)c1cc(Oc2ccc(NC(=O)Nc3ccc(Cl)c(OC(F)(F)F)c3)c(F)c2)ccn1`, the GI50 is reported as 5.35 µM and the TGI is reported as 13.5 µM.

These compounds were tested on HOP-92 NSCLC (assay: inhibition of tumour cell growth, NCI panel, 48 h).
`Cc1ccc(-c2nc(C(Cl)Cl)n3nc(-c4ccccc4)cc3n2)cc1` showed a GI50 of 0.281 µM and a TGI of 1.35 µM.
For `COC(=O)/C=C\S/C(=C(/c1ccccc1)n1ccc(C(=O)OC)n1)c1ccccc1`, the TGI was 86.2 µM.
For `COc1ccc(/C=N/Nc2nc3ccccc3c(=O)n2-c2ccccc2)c(OCc2ccccc2)c1`, the TGI was > 100 µM.
With `CNC(=O)c1cc(Oc2ccc(NC(=O)Nc3ccc(Cl)c(OC(F)(F)F)c3)c(F)c2)ccn1` the GI50 was 1.53 µM and the TGI was 16.8 µM.
With `NC(N)=N/N=C/c1c(-c2ccccn2)nc2sc(Cl)cn12` the GI50 was 10 µM and the TGI was 21.3 µM.

The compounds below were run on COLO 205 colon (assay: inhibition of tumour cell growth, NCI panel, 48 h).
`COC(=O)/C=C\S/C(=C(/c1ccccc1)n1ccc(C(=O)OC)n1)c1ccccc1` was tested, and the TGI was > 100 µM.
For `COc1ccc(/C=N/Nc2nc3ccccc3c(=O)n2-c2ccccc2)c(OCc2ccccc2)c1`, the TGI was > 100 µM.
For `CNC(=O)c1cc(Oc2ccc(NC(=O)Nc3ccc(Cl)c(OC(F)(F)F)c3)c(F)c2)ccn1`, the GI50 was 1.14 µM and the TGI was 7.65 µM.
Compound `NC(N)=N/N=C/c1c(-c2ccccn2)nc2sc(Cl)cn12` has a GI50 of 6.26 µM and a TGI of 17 µM.

These compounds were tested on IGROV1 ovarian (assay: inhibition of tumour cell growth, NCI panel, 48 h).
In the case of `Cc1ccc(-c2nc(C(Cl)Cl)n3nc(-c4ccccc4)cc3n2)cc1`, the GI50 is reported as 0.711 µM and the TGI is reported as > 100 µM.
With `COC(=O)/C=C\S/C(=C(/c1ccccc1)n1ccc(C(=O)OC)n1)c1ccccc1` the TGI was > 100 µM.
`COc1ccc(/C=N/Nc2nc3ccccc3c(=O)n2-c2ccccc2)c(OCc2ccccc2)c1` was tested, and the TGI was > 100 µM.
`CNC(=O)c1cc(Oc2ccc(NC(=O)Nc3ccc(Cl)c(OC(F)(F)F)c3)c(F)c2)ccn1` showed a GI50 of 2.3 µM and a TGI of 16.6 µM.
`NC(N)=N/N=C/c1c(-c2ccccn2)nc2sc(Cl)cn12` gave a GI50 of 6.21 µM and a TGI of 13.7 µM.

These compounds were tested on HS 578T breast (assay: inhibition of tumour cell growth, NCI panel, 48 h).
`Cc1ccc(-c2nc(C(Cl)Cl)n3nc(-c4ccccc4)cc3n2)cc1` showed a GI50 of 1.2 µM and a TGI of 3.96 µM.
`COC(=O)/C=C\S/C(=C(/c1ccccc1)n1ccc(C(=O)OC)n1)c1ccccc1` gave a TGI of 48 µM.
For `COc1ccc(/C=N/Nc2nc3ccccc3c(=O)n2-c2ccccc2)c(OCc2ccccc2)c1`, the GI50 was > 100 µM and the TGI was > 100 µM.
`CNC(=O)c1cc(Oc2ccc(NC(=O)Nc3ccc(Cl)c(OC(F)(F)F)c3)c(F)c2)ccn1` was tested, and the GI50 was 3.81 µM and the TGI was > 33.2 µM.
`NC(N)=N/N=C/c1c(-c2ccccn2)nc2sc(Cl)cn12` showed a GI50 of 8.91 µM and a TGI of 17.3 µM.

The compounds below were run on NCI/ADR-RES ovarian (assay: inhibition of tumour cell growth, NCI panel, 48 h).
With `Cc1ccc(-c2nc(C(Cl)Cl)n3nc(-c4ccccc4)cc3n2)cc1` the GI50 was 0.476 µM and the TGI was 3.76 µM.
In the case of `COC(=O)/C=C\S/C(=C(/c1ccccc1)n1ccc(C(=O)OC)n1)c1ccccc1`, the TGI is reported as > 100 µM.
With `COc1ccc(/C=N/Nc2nc3ccccc3c(=O)n2-c2ccccc2)c(OCc2ccccc2)c1` the TGI was > 100 µM.
In the case of `CNC(=O)c1cc(Oc2ccc(NC(=O)Nc3ccc(Cl)c(OC(F)(F)F)c3)c(F)c2)ccn1`, the GI50 is reported as 1.37 µM and the TGI is reported as 5.22 µM.
With `NC(N)=N/N=C/c1c(-c2ccccn2)nc2sc(Cl)cn12` the GI50 was 13.6 µM and the TGI was 35.6 µM.

Each compound was assayed on MALME-3M melanoma (assay: inhibition of tumour cell growth, NCI panel, 48 h).
With `Cc1ccc(-c2nc(C(Cl)Cl)n3nc(-c4ccccc4)cc3n2)cc1` the GI50 was > 100 µM and the TGI was > 100 µM.
For `COC(=O)/C=C\S/C(=C(/c1ccccc1)n1ccc(C(=O)OC)n1)c1ccccc1`, the TGI was 43.9 µM.
For `COc1ccc(/C=N/Nc2nc3ccccc3c(=O)n2-c2ccccc2)c(OCc2ccccc2)c1`, the TGI was > 100 µM.

The compounds below were run on T-47D breast (assay: inhibition of tumour cell growth, NCI panel, 48 h).
`Cc1ccc(-c2nc(C(Cl)Cl)n3nc(-c4ccccc4)cc3n2)cc1` showed a GI50 of 0.505 µM and a TGI of 3.53 µM.
With `COC(=O)/C=C\S/C(=C(/c1ccccc1)n1ccc(C(=O)OC)n1)c1ccccc1` the TGI was > 100 µM.
In the case of `COc1ccc(/C=N/Nc2nc3ccccc3c(=O)n2-c2ccccc2)c(OCc2ccccc2)c1`, the TGI is reported as > 100 µM.
With `CNC(=O)c1cc(Oc2ccc(NC(=O)Nc3ccc(Cl)c(OC(F)(F)F)c3)c(F)c2)ccn1` the GI50 was 0.814 µM and the TGI was 7.27 µM.
With `NC(N)=N/N=C/c1c(-c2ccccn2)nc2sc(Cl)cn12` the GI50 was 8.58 µM and the TGI was 23.3 µM.

The compounds below were run on SW-620 colon (assay: inhibition of tumour cell growth, NCI panel, 48 h).
Compound `Cc1ccc(-c2nc(C(Cl)Cl)n3nc(-c4ccccc4)cc3n2)cc1` has a GI50 of 0.392 µM and a TGI of 2.35 µM.
For `COC(=O)/C=C\S/C(=C(/c1ccccc1)n1ccc(C(=O)OC)n1)c1ccccc1`, the TGI was > 100 µM.
For `COc1ccc(/C=N/Nc2nc3ccccc3c(=O)n2-c2ccccc2)c(OCc2ccccc2)c1`, the TGI was > 100 µM.
With `CNC(=O)c1cc(Oc2ccc(NC(=O)Nc3ccc(Cl)c(OC(F)(F)F)c3)c(F)c2)ccn1` the GI50 was 2.13 µM and the TGI was > 33.2 µM.
`NC(N)=N/N=C/c1c(-c2ccccn2)nc2sc(Cl)cn12` was tested, and the GI50 was 5.29 µM and the TGI was 11.8 µM.

These compounds were tested on M14 melanoma (assay: inhibition of tumour cell growth, NCI panel, 48 h).
For `Cc1ccc(-c2nc(C(Cl)Cl)n3nc(-c4ccccc4)cc3n2)cc1`, the GI50 was > 100 µM and the TGI was > 100 µM.
With `COC(=O)/C=C\S/C(=C(/c1ccccc1)n1ccc(C(=O)OC)n1)c1ccccc1` the TGI was > 100 µM.
In the case of `COc1ccc(/C=N/Nc2nc3ccccc3c(=O)n2-c2ccccc2)c(OCc2ccccc2)c1`, the TGI is reported as > 100 µM.
`CNC(=O)c1cc(Oc2ccc(NC(=O)Nc3ccc(Cl)c(OC(F)(F)F)c3)c(F)c2)ccn1` gave a GI50 of 1.02 µM and a TGI of 5.38 µM.
In the case of `NC(N)=N/N=C/c1c(-c2ccccn2)nc2sc(Cl)cn12`, the GI50 is reported as 7.6 µM and the TGI is reported as 15.9 µM.

The compounds below were run on SK-MEL-28 melanoma (assay: inhibition of tumour cell growth, NCI panel, 48 h).
`COC(=O)/C=C\S/C(=C(/c1ccccc1)n1ccc(C(=O)OC)n1)c1ccccc1` was tested, and the TGI was > 100 µM.
In the case of `COc1ccc(/C=N/Nc2nc3ccccc3c(=O)n2-c2ccccc2)c(OCc2ccccc2)c1`, the TGI is reported as > 100 µM.
For `CNC(=O)c1cc(Oc2ccc(NC(=O)Nc3ccc(Cl)c(OC(F)(F)F)c3)c(F)c2)ccn1`, the GI50 was 1.01 µM and the TGI was 4.27 µM.
